The text below walks through data of patent US7323489B2, “Proline ester and preparation containing the same for percutaneous administration” (Toaeiyo Ltd., priority 2002, dated 2008).

The nature of series [1]: Stability test (storage in isopropyl myristate, HPLC peak area ratio). It counts as physicochemical. As for the experimental part: About 5 mg of each of Inventive Compounds 1 to 5 and enalapril was put in a glass vial. Isopropyl myristate (100 μL) was added, to thereby yield a solution (or suspension). The vial was tightly sealed and stored in a 60° C. thermostatic chamber for one week. Methanol was added to the solution contained in the vial until the total volume of the solution mixture became 100 mL. The resultant solution was employed as a test solution to be subjected to an HPLC analysis. Peak area ratio (expressed by percentage) of each compound with respect to a sum of all the obtained peak areas was calculated.

The conditions of series [2]: in the skin and in the plasma; cited from earlier work.
For series [3], the system named is three-dimensional cultured human skin model (LSE-high, Toyobo Co., Ltd.). The series can be described thus: Metabolism test by use of cultured human skin. In kind it is in vitro ADME. The following applies: receptor phase PBS pH 7.4, 24 hours, 1.0 mass % in isopropyl myristate, 200 μL applied, 37° C. Here is the method: A sample of a three-dimensional cultured human skin model (LSE-high, Toyobo Co., Ltd.) was set in a vertical diffusion cell whose temperature was maintained at 37° C., and the receptor phase of the cell was filled with 7 mL isotonic phosphate buffer (PBS, pH 7.4). The cell was allowed to stand for one hour. Each of Inventive Compounds 1 to 3 and enalapril (serving as a Comparative Example) was dissolved or suspended in isopropyl myristate so as to attain a concentration of 1.0 mass %. The solution (200 μL) was applied to the skin sample, whereby the test started. When 24 hours had passed after the test started, the concentrations of proline esters or enalapril (i.e., a prodrug of enalaprilat) which remained unchanged, and the transformed product enalaprilat contained in PBS in the receptor phase were determined through HPLC. From the obtained data, concentration ratio of “proline esters or enalapril”: “enalaprilat” was calculated (presence ratio).

The mark [4] stands for this setting: storage at 60° C. for 1 week, HPLC peak area ratio.

Turning to `COCCOC(=O)[C@@H]1CCCN1C(=O)[C@H](C)N[C@@H](CCc1ccccc1)C(=O)O` [Inventive Compound 4, 1-[N-[(1S)-1-Carboxy-3-phenylpropyl]-L-alanyl]-L-proline 2-methoxyethyl ester], in series [1] (setting [4]), the “Area ratio: Closed ring product” value is given as 0.0%, the “Area ratio: Enalaprilat” value was determined as 0.0% and the “Area ratio: Proline ester compound” value was determined as 99.1%.
Consider `CCOC(=O)[C@H](CCc1ccccc1)N[C@@H](C)C(=O)N1CCC[C@H]1C(=O)O` [Enalapril, reference compound], for which, in series [2], the “Conversion of percutaneously absorbed enalapril to enalaprilat (in words)” value is “not converted to enalaprilat”. The “Stability on storage (in words)” value in series [1] (60° C., one week) is “completely degraded”. In addition, in series [1] (setting [4]), the “Area ratio: Closed ring product” value turned out to be 48.4%, the “Area ratio: Enalapril” value was 0.0% and the “Area ratio: Enalaprilat” value is 0.0%. For the same compound, in series [3], the “Presence ratio: proline ester or enalapril (unchanged) part of concentration ratio” value amounted to 98.8.
Regarding `C[C@H](N[C@@H](CCc1ccccc1)C(=O)O)C(=O)N1CCC[C@H]1C(=O)OCCCO` [Inventive Compound 2, 1-[N-[(1S)-1-Carboxy-3-phenylpropyl]-L-alanyl]-L-proline 3-hydroxypropyl ester], in series [1] (setting [4]), the “Area ratio: Closed ring product” value is 0.0%, the “Area ratio: Enalaprilat” value amounted to 0.0% and the “Area ratio: Proline ester compound” value worked out at 96.7%. Further, the “Presence ratio: proline ester or enalapril (unchanged) part of concentration ratio” value in series [3] is 36.3.
As for `C[C@H](N[C@@H](CCc1ccccc1)C(=O)O)C(=O)N1CCC[C@H]1C(=O)OCCCCO` [Inventive Compound 3, 1-[N-[(1S)-1-Carboxy-3-phenylpropyl)-L-alanyl]-L-proline 4-hydroxybutyl ester], in series [1] (setting [4]), the “Area ratio: Closed ring product” value is listed as 0.0%, the “Area ratio: Enalaprilat” value is given as 0.0% and the “Area ratio: Proline ester compound” value came out at 94.4%. In series [3], the “Presence ratio: proline ester or enalapril (unchanged) part of concentration ratio” value turned out to be 30.4.
Turning to `C[C@H](N[C@@H](CCc1ccccc1)C(=O)O)C(=O)N1CCC[C@H]1C(=O)OCCO` [Inventive Compound 1, 1-[N-[(1S)-1-Carboxy-3-phenylpropyl]-L-alanyl]-L-proline 2-hydroxyethyl ester], in series [1] (setting [4]), the “Area ratio: Closed ring product” value turned out to be 0.0%, the “Area ratio: Enalaprilat” value was found to be 0.0% and the “Area ratio: Proline ester compound” value came to 91.8%. Further, in series [3], the “Presence ratio: proline ester or enalapril (unchanged) part of concentration ratio” value worked out at 23.5.
As to `COCCOCCOC(=O)[C@@H]1CCCN1C(=O)[C@H](C)N[C@@H](CCc1ccccc1)C(=O)O` [Inventive Compound 5, 1-[N-[(1S)-1-Carboxy-3-phenylpropyl]-L-alanyl]-L-proline 2-(2-methoxyethoxy)ethyl ester], in series [1] (setting [4]), the “Area ratio: Closed ring product” value is 0.0%, the “Area ratio: Enalaprilat” value was determined as 0.0% and the “Area ratio: Proline ester compound” value is 94.2%.
